Test results: article PMC9370530, “Modified Benzoxazole-Based VEGFR-2 Inhibitors and Apoptosis Inducers: Design, Synthesis, and Anti-Proliferative Evaluation” (Molecules, 2022)

Legend:
VEGFR-2 kinase = target: T1, VEGFR-2 kinase (Homo sapiens, UniProt P35968); experiment: In vitro VEGFR-2 kinase inhibitory assay (ELISA kit); format: biochemical; details: human VEGFR-2 ELISA kit; median of three experiments
T1 construct: purchased

breast cancer (MCF-7) = experiment: In vitro anti-proliferative MTT assay, MCF-7; details: Homo sapiens, MCF7, 24 h, read-out: IC50 MCF-7
Procedure: (§6) This test was carried out on three different human cancer cell lines: MCF-7, HCT116, and HepG2 using the MTT method [66].
(§7) This test was carried out on three different human cancer cell lines: MCF-7, HCT116, and HepG2, We performed this colorimetric experiment with quantitative assessment of anticancer activity in accordance with the MTT method [1] The assay is based primarily on a biochemical reaction in which mitochondrial succinate dehydrogenase transforms yellow tetrazolium bromide (MTT) to a purple formazan derivative in live cells.
(§8) with 10% foetal bovine serum in general. In a 5 percent CO2 incubator at 37 °C, penicillin (100 units/mL) and streptomycin (100g/mL) were introduced. The cells were seeded at a density of 1.0x10^4 cells/well in a 96-well plate at 37 C for 48 hours under 5% CO2. […] The cells were given varying concentrations of the novel compounds and cultured for 24 hours. Then we add 20 l of MTT in a 5 mg/ml solution and let it sit for 4 hours.
(§9) 100 µl of DMSO was applied to each well to dissolve the purple formazan produced.
(§10) curve for each conc. using Graphpad Prism software (San Diego, CA. USA). The data presented are the mean of at least three separate experiments.
(§11) The IC50 of the selected derivatives were determined against VEGFR-2 kinase with enzyme linked immunosorbent assay (ELISA). We used a human VEGFR-2 ELISA kit. VEGFR-2 specific antibody was seeded on a 96 well microplate and 100 μL of solution of the standard or the tested compound was added. After incubation for 2.5 h. at room temperature and washing, 100 μL of prepared biotin antibody was added. Incubation of the plates for 1 h at room temperature and then washing were carried out before addition of streptavidin solution (100 μL). The mixture was incubated for 1h at room temperature and then washed. After that, 100 μL of tetramethybenzidine (TMB) substrate solution was added before incubation for half an hour at room temperature.
(§12) Finally, 50 μL of the stop solution was added immediately before the reading at 450 nm.
(§13) Percent inhibition was calculated by the comparison of compounds treated to control

[1] = system: hepatocellular carcinoma (HepG2); experiment: In vitro anti-proliferative MTT assay, HepG2; details: Homo sapiens, HepG2, 24 h, read-out: IC50 HepG2
Procedure: as §6, §7, §8, §9, §10, §11, §12, §13

[2] = system: colorectal carcinoma (HCT116); experiment: In vitro anti-proliferative MTT assay, HCT116; details: Homo sapiens, HCT-116, 24 h, read-out: IC50 HCT116
Procedure: as §6, §7, §8, §9, §10, §11, §12, §13

IL-6 = IL-6 level in HepG2 cells by qRT-PCR; format: cell-based; details: Homo sapiens, 2.43 µM for 24 h
Procedure: (§1) The inhibition of these mediators caused apoptosis of tumor cells. Therefore, further investigation was conducted to see how compound 8 affect these cytokines (TNF-α and IL-6). Compound 8d was added to HepG2 cells at a concentration of 2.43 µM for 24 h, then the levels of TNF-α and IL-6 were measured using the qRT-PCR method.
(§2) The effects of 8d on TNF-α and IL-6 were determined using the qRT-PCR technique. The Supplementary data provides further detailed information about the study. […]
(§3) HepG2 cells were cultured according to the methodology described by Wang et al. The cells were planted and cultured for 24 h in six-well plates. Each well had 2 × 10^5 cells in it. Then 10% fetal bovine serum (FBS) was added, and the cells were incubated at 37 °C with 5% CO2.
(§4) The medium was then changed. DMSO (1% v/v) containing 2.43 μM of compound 8d was substituted. Following that, the cells were rinsed in cold phosphate buffered saline. […]
(§5) 1.5. Quantitative Real Time Reverse-Transcriptase PCR (qRT-PCR) technique The effects of compound 8d on the expression of TNF-α and IL-6 were determined using qRT-PCR technique. The quantity of immunomodulatory proteins (TNF-α and IL-6) in control and compound 8d (at the IC50 concentration)-treated HepG2 cells was assessed by qRT-PCR (reference). […]

TNF-α = TNF-α level in HepG2 cells by qRT-PCR; format: cell-based; details: Homo sapiens, 2.43 µM for 24 h
Procedure: as §1, §2, §3, §4, §5

HepG2 cells = experiment: HepG2 cell cycle analysis (PI flow cytometry); format: cell-based, human; details: 2.43 μM of compound
Procedure: The most promising candidate, compound 8d, was further evaluated by analyzing its effect on cycle phases of the HepG2 cells. From the results presented in Table 3, it can be noticed that a large percentage (70.23%) of cells treated with 8d was accumulated at the pre-G1 phase compared to the 2.70% reported for control cells. This clearly indicates the ability of compound 8d to inhibit HepG2 cell proliferation efficiently at the pre-G1 phase (Figure 5).
HepG2 Cell Cycle Analysis was performed for compound 8d according to the methodology reported by Wang et al.. The Supplementary data provides further detailed information about the study. […]
as §3
The medium was then changed. DMSO (1% v/v) containing 2.43 μM of compound 8d was substituted. Following that, the cells were rinsed in cold phosphate buffered saline. (PBS), then fixed in 70% ethyl alcohol, washed in PBS, and […]. After that, the DNA fluorochrome propidium iodide (PI) was maintained at […] for 1 5 minutes at 37 °C. A FACS Caliber flow cytometer was used to analyze the samples. […]

T1 sequence (P35968 20-1356): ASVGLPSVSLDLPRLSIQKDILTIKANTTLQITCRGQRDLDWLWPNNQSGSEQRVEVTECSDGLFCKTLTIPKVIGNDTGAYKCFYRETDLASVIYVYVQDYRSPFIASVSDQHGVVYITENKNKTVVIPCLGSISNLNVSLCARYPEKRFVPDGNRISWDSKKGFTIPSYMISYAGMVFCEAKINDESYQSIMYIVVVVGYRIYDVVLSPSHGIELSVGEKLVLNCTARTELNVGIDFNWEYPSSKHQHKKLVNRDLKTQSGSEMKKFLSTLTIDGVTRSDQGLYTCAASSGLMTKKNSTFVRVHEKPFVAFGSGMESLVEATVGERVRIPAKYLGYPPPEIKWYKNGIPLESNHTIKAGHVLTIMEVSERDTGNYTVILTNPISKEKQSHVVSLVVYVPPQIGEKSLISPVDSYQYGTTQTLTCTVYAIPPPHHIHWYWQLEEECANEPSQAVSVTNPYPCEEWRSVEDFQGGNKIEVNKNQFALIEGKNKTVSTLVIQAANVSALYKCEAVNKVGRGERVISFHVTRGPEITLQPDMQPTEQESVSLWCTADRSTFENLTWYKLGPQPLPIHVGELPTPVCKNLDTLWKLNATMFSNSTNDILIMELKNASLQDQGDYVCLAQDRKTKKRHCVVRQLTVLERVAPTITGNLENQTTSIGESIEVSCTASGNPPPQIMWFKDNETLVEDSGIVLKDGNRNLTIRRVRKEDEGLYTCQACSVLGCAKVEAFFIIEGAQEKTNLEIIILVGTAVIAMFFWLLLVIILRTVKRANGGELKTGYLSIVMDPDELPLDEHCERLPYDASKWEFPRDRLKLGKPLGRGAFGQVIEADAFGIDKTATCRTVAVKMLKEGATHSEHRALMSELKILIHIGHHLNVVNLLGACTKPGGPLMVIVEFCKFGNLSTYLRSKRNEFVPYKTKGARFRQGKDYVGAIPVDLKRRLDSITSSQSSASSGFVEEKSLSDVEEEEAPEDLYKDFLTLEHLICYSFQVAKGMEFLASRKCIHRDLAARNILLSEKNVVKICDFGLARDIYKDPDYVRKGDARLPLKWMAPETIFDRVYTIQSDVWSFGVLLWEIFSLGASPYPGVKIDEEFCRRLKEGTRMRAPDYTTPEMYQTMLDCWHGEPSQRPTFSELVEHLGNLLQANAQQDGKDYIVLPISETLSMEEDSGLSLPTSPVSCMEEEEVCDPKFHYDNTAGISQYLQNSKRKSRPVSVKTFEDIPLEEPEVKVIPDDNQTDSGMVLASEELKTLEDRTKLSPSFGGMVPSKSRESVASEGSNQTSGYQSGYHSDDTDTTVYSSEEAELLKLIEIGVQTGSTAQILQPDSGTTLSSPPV

IC50 (VEGFR-2 kinase) [µM]	IC50 (breast cancer (MCF-7)) [µM]	IC50 [1] [µM]	IC50 [2] [µM]	SMILES	inhibition at 2.43 µM (IL-6) [%]	inhibition at 2.43 µM (TNF-α) [%]	%Pre-G1 (HepG2 cells; control 2.70) [%]	%G2-M (HepG2 cells; control 19.31) [%]	%G0–G1 (HepG2 cells; control 39.81) [%]	%S (HepG2 cells; control 40.88) [%]
0.0741	5.69 ± 0.44	4.51 ± 0.35	3.29 ± 0.26	O=C(CSc1nc2cc(Cl)ccc2o1)Nc1ccc(C(=O)Nc2ccc([N+](=O)[O-])cc2)cc1 [Compound 8e, 4-(2-((5-Chlorobenzo[d]oxazol-2-yl)thio)acetamido)-N-(4-nitrophenyl) benzamide]						
0.0579	9.49 ± 0.75	10.4 ± 0.98	10.1 ± 0.95	Cc1ccc(NC(=O)c2ccc(NC(=O)CSc3nc4ccccc4o3)cc2)cc1 [Compound 8a, 4-(2-(Benzo[d]oxazol-2-ylthio)acetamido)-N-(p-tolyl)benzamide]						
	12.4 ± 0.92	10.4 ± 0.92	11.6 ± 0.91	Cc1ccc(NC(=O)c2ccc(NC(=O)CSc3nc4cc(Cl)ccc4o3)cc2)cc1 [Compound 8b, 4-(2-((5-Chlorobenzo[d]oxazol-2-yl)thio)acetamido)-N-(p-tolyl)benzamide]						
1.14	9.15 ± 0.85	8.16 ± 0.77	6.12 ± 0.55	Cc1ccc(NC(=O)c2ccc(NC(=O)CSc3nc4cc(C)ccc4o3)cc2)cc1 [Compound 8c, 4-(2-((5-Methylbenzo[d]oxazol-2-yl)thio)acetamido)-N-(p-tolyl)benzamide]						
0.114	3.53 ± 0.28	2.76 ± 0.18	2.94 ± 0.19	CC(=O)c1ccc(NC(=O)c2ccc(NC(=O)CSc3nc4cc(C)ccc4o3)cc2)cc1 [Compound 8h, N-(4-Acetylphenyl)-4-(2-((5-methylbenzo[d]oxazol-2-yl)thio)acetamido) benzamide]						
	12.5 ± 1.1	8.44 ± 0.65	10.4 ± 0.92	CC(=O)c1ccc(NC(=O)c2ccc(NC(=O)CSc3nc4cc(Cl)ccc4o3)cc2)cc1 [Compound 8g, N-(4-Acetylphenyl)-4-(2-((5-chlorobenzo[d]oxazol-2-yl)thio)acetamido) benzamide]						
0.204	4.97 ± 0.32	4.41 ± 0.35	4 ± 0.33	Cc1ccc2oc(SCC(=O)Nc3ccc(C(=O)Nc4ccc([N+](=O)[O-])cc4)cc3)nc2c1 [Compound 8f, 4-(2-((5-Methylbenzo[d]oxazol-2-yl)thio)acetamido)-N-(4-nitrophenyl) benzamide]						

The remaining lines, values behind:

SMILES	IC50 (VEGFR-2 kinase) [µM]	IC50 (breast cancer (MCF-7)) [µM]	IC50 [1] [µM]	IC50 [2] [µM]	inhibition at 2.43 µM (IL-6) [%]	inhibition at 2.43 µM (TNF-α) [%]	%Pre-G1 (HepG2 cells; control 2.70) [%]	%G2-M (HepG2 cells; control 19.31) [%]	%G0–G1 (HepG2 cells; control 39.81) [%]	%S (HepG2 cells; control 40.88) [%]
CNC(=O)c1cc(Oc2ccc(NC(=O)Nc3ccc(Cl)c(C(F)(F)F)c3)cc2)ccn1 [Sorafenib, reference compound]			3.4 ± 0.25	5.3 ± 0.44						
O=C(CSc1nc2cc(Cl)ccc2o1)Nc1ccc(C(=O)NCc2ccccc2)cc1 [Compound 8j, N-Benzyl-4-(2-((5-chlorobenzo[d]oxazol-2-yl)thio)acetamido)benzamide]		16.9 ± 1.5	14.2 ± 1.1	18.2 ± 1.5						
O=C(CSc1nc2ccccc2o1)Nc1ccc(C(=O)NCCc2ccccc2)cc1 [Compound 8l, 4-(2-(Benzo[d]oxazol-2-ylthio)acetamido)-N-phenethylbenzamide]		12.5 ± 1.05	11.2 ± 0.95	14.2 ± 1.2						
Cc1ccc2oc(SCC(=O)Nc3ccc(C(=O)NCc4ccccc4)cc3)nc2c1 [Compound 8k, N-Benzyl-4-(2-((5-methylbenzo[d]oxazol-2-yl)thio)acetamido)benzamide]	0.653	8.37 ± 0.77	10.1 ± 0.93	8.09 ± 0.71						
C[C@@H]1C[C@H]2[C@@H]3CCC4=CC(=O)C=C[C@]4(C)[C@@]3(F)[C@@H](O)C[C@]2(C)[C@@]1(O)C(=O)CO [Dexamethasone, reference compound]					93.2	82.5				
Cc1ccc2oc(SCC(=O)Nc3ccc(C(=O)NCCc4ccccc4)cc3)nc2c1 [Compound 8m, 4-(2-((5-Methylbenzo[d]oxazol-2-yl)thio)acetamido)-N-phenethylbenzamide]		25.8 ± 2.1	28.6 ± 2.1	16.4 ± 1.3						
O=C(CSc1nc2ccccc2o1)Nc1ccc(C(=O)NCc2ccccc2)cc1 [Compound 8i, 4-(2-(Benzo[d]oxazol-2-ylthio)acetamido)-N-benzylbenzamide]	0.317	10 ± 0.95	5.92 ± 0.47	8.53 ± 0.77						
O=C(CSc1nc2ccccc2o1)Nc1ccc(C(=O)Nc2ccc([N+](=O)[O-])cc2)cc1 [Compound 8d, 4-(2-(Benzo[d]oxazol-2-ylthio)acetamido)-N-(4-nitrophenyl)benzamide]		3.43 ± 0.15	2.43 ± 0.16	2.79 ± 0.19	92.2	90.5	70.23	19.1	31.1	49.8
